Assay results reported in US20150004697A1, “METHOD FOR PRODUCING MULTIPOLAR CELL” (TOAGOSEI CO., LTD., priority 2011, published 2015).

Legend:
Format in all cases: cell-based
[1] = system: human alveolar basal epithelial adenocarcinoma cells, A549; test: Multipolarity-inducing activity assay 3 (A549 cells synchronized in G2 phase (or M phase)); conditions: peptide 10 μM; for Multipolar level (%): 100 M-phase cells; for fluorescence microscope observation of centrosomes and multipolar spindles: DAPI, anti-tubulin and anti-centrin antibody
Description: Some of the sample peptides obtained in Example 1 were tested for multipolarity-inducing activity against target cultured tumor cells. Details of the assay are as described below. As the tumor cells tested, cells forming a […] (human alveolar basal epithelial adenocarcinoma cells, A549) were used. The cell line was cultured in the same manner as Example 2 described above. The resulting cultured tumor cells were synchronized in the G2 phase (or M phase) in the same manner as Example 3 described above. Similarly to Examples 2 and 3 described above (although the number of M-phase cells was 100), the presence of multipolarity was observed by immunofluorescence under fluorescence microscope. In addition, using centrin-2 as a marker for centrosomes (centrioles), the cells were tested for the presence of centrin-2 (i.e. the presence of centrosomes) by immunofluorescence with an anti-centrin-2 antibody (primary antibody) to identify the centrin-2 and a fluorescent dye-labeled secondary antibody to identify the primary antibody.

HeLa cell line (HeLa S3) [2] = test: Multipolarity-inducing activity assay 1 (cells synchronized in G1 phase by double thymidine block); conditions: peptide 10 μM, 6 hours of incubation; for Number of multipolar cells: HeLa S3 synchronized in G1 phase, count among the M-phase cells observed
Description: Some of the sample peptides obtained in Example 1 were tested for multipolarity-inducing activity against target cultured tumor cells. Details of the assay are as described below.
As the tumor cells tested, a HeLa cell line (HeLa S3) was used. The cell line was cultured beforehand in a DMEM medium (i.e. Dulbecco MEM medium (DMEM medium, a Gibco product) containing 10% fetal bovine serum (FBS, a Gibco product), 2 mM of L-glutamine, 50 unit/mL of penicillin, and 50 μg/mL of streptomycin), and seeded at about 3×10^4 cells per well in an 8-well slide glass. Thymidine was added to the culture medium to a final concentration of 2.5 mM. Incubation was carried out at 37° C. under 5% CO2 for 16 hours. The culture medium was exchanged to remove thymidine and incubation was carried out for 8 more hours. Subsequently, thymidine was added again to a final concentration of 2.5 mM and incubation was carried out for 16 hours.
By such double thymidine block, the cells being cultured were synchronized in the G1 phase of the cell cycle. After such synchronization treatment, the culture medium was exchanged to remove thymidine and incubation was carried out for 2 more hours. Subsequently, one of the sample peptides was added to each well. In this example, one of Samples 1, 4, 8, 9, 12 and 14 was added to a peptide concentration in the well of 10 μM.
After a sample peptide was added as described above, the 8-well slid glass was incubated under the aforementioned conditions for 6 hours.
After 6 hours of incubation, the presence of multipolarity was observed by immunofluorescence under fluorescence microscope. In particular, after 6 hours of incubation following the addition of a sample peptide, the cultured cells were subjected to nuclear staining with DAPI (4′,6-diamidino-2-phenylindole), and using α-tubulin as a marker for spindles, the cells were tested for the presence of tubulin (i.e., the presence of spindles) by immunofluorescence with an anti-tubulin antibody (primary antibody) to identify the tubulin and a fluorescent dye (ALEXA FLUOR(registered trademark) 555)-labeled secondary antibody to identify the primary antibody.

HeLa cell line (HeLa S3) [3] = test: Multipolarity-inducing activity assay 2 (cells synchronized in G2 phase (or M phase) by nocodazole); conditions: for Multipolar level (%): peptide 10 μM for 4 hours with nocodazole, then 2 hours without, % of M-phase cells; for Multipolar level (%) / Number of multipolar cells: HeLa S3 synchronized in G2 phase (M phase); for Number of multipolar cells / fluorescence microscope observation of centrosomes and multipolar spindles: peptide 10 μM; for Number of multipolar cells: count among 75 M-phase cells; for fluorescence microscope observation of centrosomes and multipolar spindles: HeLa synchronized in G2 phase (or M phase) by nocodazole, DAPI and anti-tubulin antibody
Description: The same sample peptides as those used in Example 2 above were used and tested for multipolarity-inducing activity against cultured tumor cells synchronized in the G2 phase (or M phase). Details of the assay are as described below.
As the tumor cells tested, a HeLa cell line (HeLa S3) was used. The cell line was cultured under the same conditions as Example 2 and seeded at about 3×10^4 cells per well in an 8-well slide glass. Thymidine was added to the culture medium to a final concentration of 2.5 mM. Incubation was carried out at 37° C. under 5% CO2 for 18 hours. The culture medium was exchanged to remove thymidine and incubation was carried out for 6 more hours. Subsequently, nocodazole was added to a final concentration of 0.1 μg/mL and incubation was carried out for 16 hours. By such addition of nocodazole, the cells being cultured were synchronized in the G2 phase (M phase) of the cell cycle.
After the 16 hours of incubation, without exchanging the culture medium (i.e. with nocodazole being contained), one of the sample peptides was added to each well to a peptide concentration in the well of 10 μM and incubation was carried out for 4 hours. Subsequently, the culture medium was exchanged and incubation was continued for 2 more hours without nocodazole or the sample peptide.
After the 2 hours of incubation, in the same manner as Example 2, the presence of multipolarity was observed by immunofluorescence under fluorescence microscope.

Sequence	Multipolar level (%) [1] [%]	Number of multipolar cells (HeLa cell line (HeLa S3) [2])	Multipolar level (%) (HeLa cell line (HeLa S3) [3])	Number of multipolar cells (HeLa cell line (HeLa S3) [3])	fluorescence microscope observation of centrosomes and multipolar spindles (HeLa cell line (HeLa S3) [3])	Multipolar level (%) (HeLa cell line (HeLa S3) [2]; HeLa S3 synchronized in G1 phase (double thymidine block), % multipolar cells relative to M-phase cells)	fluorescence microscope observation of centrosomes and multipolar spindles [1]
CEISAKRTC [Sample 7]	36						
CGHRPYQYC [Sample 4]	36	6	62.7	47			
CHILHAQAC [Sample 8]	36	11	68.0	51			
CLAPSPSKC [Sample 2]	38						
CLAPSPSKCKKRFLRKNDRKKR (CLAPSPSKCKKRTLRKNDRKKR) [Sample 14]	38	10	61.3	46			
CLTKSYTSC [Sample 12]		13	64.0	48	3 or more centrosomes formed in many cells		
CPRPPSLEC [Sample 9]		19	73.3	55	3 or more centrosomes formed in many cells and a cell with a particularly high degree of multipolarity		
CSSATGKSC [Sample 1]		7	62.7	47		8.3	
CSYEKRPMC [Sample 11]							3 or more (typically 4 or more, e.g. 8 or more) centrosomes formed in many cells
CTGHWASEC [Sample 10]	31						
CTLNSHSNC [Sample 6]	30						3 or more (typically 4 or more, e.g. 8 or more) centrosomes formed in many cells
